The values below come from ChEMBL document CHEMBL1156188, “Synthesis and SAR of novel 4-morpholinopyrrolopyrimidine derivatives as potent phosphatidylinositol 3-kinase inhibitors” (J Med Chem, 2010).

≈ marks a conversion by molar mass, not a printed value. Bounds are passed on as bounds.

The test system of one data set is PC-3. The data set is described as follows: Cytotoxicity against human PC3 cells with PTEN mutant after 72 hrs. Conditions: PC-3, 72 h. In kind it is functional, cell-based.
Data set [1] can be described thus: Solubility at pH 7.4. In kind it is physicochemical. Conditions: buffer.
The test system of a further data set is MDA-MB-361. Put plainly: cells. Conditions: Homo sapiens, MDA-MB-361, 72 h.
Data set [2] can be described thus: in vitro. The following applies: rat, liver microsomes. (In general: Liver microsomes are a subcellular fraction often used to study metabolism.)
Description: Half life in rat liver microsomes
In data set [3] the target is Serine/threonine-protein kinase mTOR (Homo sapiens, UniProt P42345). Put plainly: Inhibition of mTOR by DELFIA.
Data set [4] can be described thus: Solubility at pH 3. In kind it is physicochemical. The following applies: buffer.
Data set [5] in a line: Drug level in human MDA-MB-361 cells xenografted nude mouse at 25 mg/kg, iv after 8 hrs. The following applies: blood, read-out: Drug uptake. Also noted: dose 25 mg/kg, route intravenous. In kind it is ADME, organism-based.
The target in data set [6] is Phosphatidylinositol 4,5-bisphosphate 3-kinase catalytic subunit alpha isoform (Homo sapiens, UniProt P42336).
The nature of data set [7]: in vitro. Conditions: mouse, liver microsomes.
Description: Half life in mouse liver microsomes
The nature of data set [8]: in vitro. The following applies: human, liver microsomes.
Description: Half life in human liver microsomes

Chain of Phosphatidylinositol 4,5-bisphosphate 3-kinase catalytic subunit alpha isoform (P42336 whole entry, canonical isoform): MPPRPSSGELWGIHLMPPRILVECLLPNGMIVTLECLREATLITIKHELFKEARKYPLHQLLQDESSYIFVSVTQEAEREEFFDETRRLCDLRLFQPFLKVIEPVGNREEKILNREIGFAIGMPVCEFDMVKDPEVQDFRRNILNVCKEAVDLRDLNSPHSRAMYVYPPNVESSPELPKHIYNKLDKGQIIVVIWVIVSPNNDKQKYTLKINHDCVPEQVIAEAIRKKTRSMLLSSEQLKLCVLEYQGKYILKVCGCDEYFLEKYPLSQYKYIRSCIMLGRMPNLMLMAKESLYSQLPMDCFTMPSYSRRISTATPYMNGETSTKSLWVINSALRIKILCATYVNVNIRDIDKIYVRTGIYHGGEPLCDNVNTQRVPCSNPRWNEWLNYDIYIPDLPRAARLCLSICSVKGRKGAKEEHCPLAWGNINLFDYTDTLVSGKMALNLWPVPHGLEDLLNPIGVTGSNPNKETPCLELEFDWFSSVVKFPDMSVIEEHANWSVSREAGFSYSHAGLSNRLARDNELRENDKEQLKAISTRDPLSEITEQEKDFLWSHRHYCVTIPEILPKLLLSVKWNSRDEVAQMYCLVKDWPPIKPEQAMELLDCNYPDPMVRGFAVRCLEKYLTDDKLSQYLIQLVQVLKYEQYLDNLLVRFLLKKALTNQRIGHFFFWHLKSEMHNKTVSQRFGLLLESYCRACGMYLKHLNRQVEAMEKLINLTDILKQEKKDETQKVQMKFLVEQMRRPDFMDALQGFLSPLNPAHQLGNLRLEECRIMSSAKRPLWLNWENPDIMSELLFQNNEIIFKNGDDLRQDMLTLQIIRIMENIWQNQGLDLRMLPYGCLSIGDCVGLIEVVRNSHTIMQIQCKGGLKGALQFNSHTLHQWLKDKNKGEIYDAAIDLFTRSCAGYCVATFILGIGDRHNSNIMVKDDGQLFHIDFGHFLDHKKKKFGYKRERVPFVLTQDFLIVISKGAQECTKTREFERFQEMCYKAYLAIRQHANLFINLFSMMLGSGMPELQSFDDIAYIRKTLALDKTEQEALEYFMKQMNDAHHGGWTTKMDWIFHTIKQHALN

In general, IC50 refers to the concentration that inhibits the measured activity by half. Lower therefore signals higher potency. What is called solubility is the dissolved amount per volume that the medium holds. In general, half-life refers to the time in which the quantity being followed falls by half. A low value points to rapid decline. Take `O=C(Nc1ccncc1)Nc1ccc(-c2nc(N3CCOCC3)c3ccn(CC(F)(F)F)c3n2)cc1`: the half-inhibitory concentration (IC50) was 82 nM in the data set on PC-3 and 53 nM with MDA-MB-361. For the same compound, in data set [1], the concentration in solution (solubility) came to 1 µg/mL (≈ 2.01 µM). In the data set “in vitro [2]”, this compound yielded a half-life greater than 30 min.
In the case of `Oc1cccc(-c2nc(N3CCOCC3)c3[nH]cc(C4CCN(Cc5ccc(F)cc5)CC4)c3n2)c1`, in the data set with PC-3, 1650 nM corresponded to half-maximal inhibition (IC50).
Regarding `CN(C)CCn1ccc2c(N3CCOCC3)nc(-c3cccc(CO)c3)nc21`, half-maximal inhibition in the data set on PC-3 (IC50) required 691 nM. Moreover, the solubility in [1] was greater than 100 µg/mL.
For the compound `COC(Cn1ccc2c(N3CCOCC3)nc(-c3ccc(NC(=O)Nc4ccncc4)cc3)nc21)OC`, in the data set with PC-3, the IC50 was 72 nM. This compound registered a solubility in data set [1] of 2 µg/mL (≈ 3.97 µM). The half-life in “in vitro [2]” turned out to be 4 min.
On to `CN1CCN(C(=O)c2ccc(NC(=O)Nc3ccc(-c4nc(N5CCOCC5)c5ccn(CC(F)(F)F)c5n4)cc3)cc2)CC1`, for which the IC50 in [3] was determined as 1.7 nM; with PC-3, 17 nM; in [6] it was 2.4 nM; in the data set on MDA-MB-361, 6.7 nM. In addition, the solubility in data set [4] is greater than 100 µg/mL. Also, the concentration at 8 h in data set [5] came out at 1680 ng/mL. In addition, the half-life was 27 min in the data set “in vitro [2]”, greater than 30 min in “in vitro [7]” and greater than 30 min in “in vitro [8]”.
In turn, `O=C(Nc1ccncc1)Nc1ccc(-c2nc(N3CCOCC3)c3ccn(CCN4CCCCC4)c3n2)cc1` returned an IC50 in the data set on PC-3 of 634 nM. For the same compound, in [1], the concentration in solution (solubility) was 47 µg/mL (≈ 89.2 µM). Moreover, in “in vitro [2]”, the half-life amounted to 4 min.
`O=C(Nc1ccncc1)Nc1ccc(-c2nc(N3CCOCC3)c3cc[nH]c3n2)cc1` had an IC50 in the data set on PC-3 of 187 nM.
As to `O=CCn1ccc2c(N3CCOCC3)nc(-c3ccc(NC(=O)Nc4ccncc4)cc3)nc21`, half-maximal inhibition in the data set with PC-3 (IC50) required 639 nM. Moreover, the concentration in solution in data set [1] (solubility) was 2 µg/mL (≈ 4.37 µM).
Regarding `CN(C)CCn1ccc2c(N3CCOCC3)nc(-c3ccc(NC(=O)Nc4cccnc4)cc3)nc21`, the IC50 in [3] was 3 nM; in the data set on PC-3, 137 nM. This compound also yielded a solubility in data set [1] of 52 µg/mL (≈ 107 µM). Further, in “in vitro [2]”, the half-life was found to be 9 min.
On to `CCn1ccc2c(N3CCOCC3)nc(-c3ccc(NC(=O)Nc4ccc(C(=O)N5CCN(C)CC5)cc4)cc3)nc21`, for which the IC50 amounted to 1.4 nM in [3], 17 nM with PC-3, 2.7 nM in data set [6] and 4.5 nM with MDA-MB-361. Also, the values for the half-life in the data set “in vitro [2]” and in the data set “in vitro [8]” were 15 min and greater than 30 min, respectively.
Compound `O=C(Nc1ccncc1)Nc1ccc(-c2nc(N3CCOCC3)c3ccn(CCN4CCNCC4)c3n2)cc1` came in with an IC50 in the data set on PC-3 of 2330 nM. The compound further came in with a solubility in [1] greater than 100 µg/mL. In addition, the half-life in the data set “in vitro [2]” was 4 min.
`O=C(Nc1ccncc1)Nc1ccc(-c2nc(N3CCOCC3)c3ccn(CCN4CCCC4)c3n2)cc1` showed a concentration for half-maximal inhibition (IC50) with PC-3 of 555 nM. This compound also registered a solubility in data set [1] of 28 µg/mL (≈ 54.6 µM). For the same compound, in the data set “in vitro [2]”, the half-life amounted to 4 min.
Take `Oc1cccc(-c2nc(N3CCOCC3)c3[nH]ccc3n2)c1`: the IC50 in the data set on PC-3 was determined as 1550 nM.
In the data set with PC-3, `CN(C)CCn1ccc2c(N3CCOCC3)nc(-c3ccc(NC(=O)Nc4ccccn4)cc3)nc21` registered an IC50 of 882 nM. The solubility in data set [1] is 21 µg/mL (≈ 43.2 µM). In addition, the half-life in the data set “in vitro [2]” was determined as 5 min.
In the data set on PC-3, `Oc1cccc(-c2nc(N3CCOCC3)c3cc[nH]c3n2)c1` showed an IC50 of 580 nM. In data set [1], this compound showed a solubility of 2 µg/mL (≈ 6.75 µM).
For `CN(C)CCN(C)C(=O)c1ccc(NC(=O)Nc2ccc(-c3nc(N4CCOCC4)c4ccn(CC(F)(F)F)c4n3)cc2)cc1`, the IC50 in data set [3] is 0.6 nM; with PC-3, 13 nM; in the data set with MDA-MB-361, less than 3 nM. Also, the solubility in data set [4] is greater than 100 µg/mL. Further, the concentration at 8 h in data set [5] was 1730 ng/mL. The half-life was 29 min in “in vitro [2]”, greater than 30 min in “in vitro [7]” and greater than 30 min in “in vitro [8]”.
Compound `OCc1cccc(-c2nc(N3CCOCC3)c3[nH]cc(CN4CCCC4)c3n2)c1` returned a half-inhibitory concentration (IC50) in the data set with PC-3 greater than 3160 nM.
On to `CN(C)CCNC(=O)c1ccc(NC(=O)Nc2ccc(-c3nc(N4CCOCC4)c4ccn(CC(F)(F)F)c4n3)cc2)cc1`, for which the IC50 worked out at 0.4 nM in [3], 23 nM in the data set with PC-3, 1.4 nM in data set [6] and 10.3 nM with MDA-MB-361. Also, the concentration in solution in data set [4] (solubility) came to 68 µg/mL (≈ 111 µM). The half-life in “in vitro [2]” and in the data set “in vitro [8]” was greater than 30 min in each case.
`CCNC(=O)Nc1ccc(-c2nc(N3CCOCC3)c3ccn(CCN(C)C)c3n2)cc1` yielded a solubility in data set [1] greater than 100 µg/mL. The compound also returned a half-life in “in vitro [2]” of 8 min.
In the case of `CN(C)CCNCCn1ccc2c(N3CCOCC3)nc(-c3ccc(NC(=O)Nc4ccncc4)cc3)nc21`, the IC50 in the data set on PC-3 came to 1150 nM. This compound showed a solubility in data set [1] of 58 µg/mL (≈ 110 µM). The compound further displayed a half-life in “in vitro [2]” of 8 min.
`CN(C)CCn1ccc2c(N3CCOCC3)nc(-c3ccc(NC(=O)Nc4ccncc4)cc3)nc21`: the IC50 with PC-3 was found to be 100 nM; in [6], 8 nM. In data set [1], this compound displayed a solubility of 52 µg/mL (≈ 107 µM). The half-life in “in vitro [2]” is 2 min.
As for `CN(C)C1CCN(C(=O)c2ccc(NC(=O)Nc3ccc(-c4nc(N5CCOCC5)c5ccn(CC(F)(F)F)c5n4)cc3)cc2)CC1`, the IC50 stood at 45 nM in the data set on PC-3 and 11 nM in the data set on MDA-MB-361. The same compound returned a solubility in data set [1] of 1 µg/mL (≈ 1.54 µM). Further, the half-life in the data set “in vitro [2]” is greater than 30 min.
In the data set with PC-3, `CNC(=O)Nc1ccc(-c2nc(N3CCOCC3)c3ccn(CCN(C)C)c3n2)cc1` displayed an IC50 of 437 nM. In addition, the solubility in [1] is greater than 100 µg/mL. For the same compound, in “in vitro [2]”, the half-life was determined as 9 min.
In the data set with PC-3, `CN(C)CCn1ccc2c(N3CCOCC3)nc(-c3cccc(O)c3)nc21` gave an IC50 of 1180 nM. The compound further registered a solubility in data set [1] greater than 100 µg/mL.
Turning to `CCn1ccc2c(N3CCOCC3)nc(-c3ccc(NC(=O)Nc4ccc(C(=O)NCCN(C)C)cc4)cc3)nc21`, the IC50 in data set [3] came out at 0.5 nM; in the data set on PC-3, 26.5 nM; in data set [6], 1.8 nM; in the data set on MDA-MB-361, 5.5 nM. This compound returned a solubility in data set [1] of 1 µg/mL (≈ 1.8 µM). In addition, the half-life in the data set “in vitro [2]” and in the data set “in vitro [8]” was greater than 30 min throughout.
Consider `OCc1cccc(-c2nc(N3CCOCC3)c3ncn(C4CCN(Cc5ccccc5)CC4)c3n2)c1`, for which, in the data set “in vitro [2]”, the half-life stood at 2 min.
`CN1CCN(CCn2ccc3c(N4CCOCC4)nc(-c4ccc(NC(=O)Nc5ccncc5)cc4)nc32)CC1` had an IC50 in the data set on PC-3 of 964 nM. This compound came in with a solubility in data set [1] greater than 100 µg/mL. In addition, the half-life in the data set “in vitro [2]” is 4 min.
As to `O=C(Nc1ccncc1)Nc1ccc(-c2nc(N3CCOCC3)c3ccn(CCO)c3n2)cc1`, the IC50 is 91 nM in the data set on PC-3 and 5 nM in data set [6]. In data set [1], this compound yielded a solubility of 1 µg/mL (≈ 2.18 µM). This compound registered a half-life in “in vitro [2]” of 22 min.
For the compound `CN(C)Cc1c[nH]c2c(N3CCOCC3)nc(-c3cccc(CO)c3)nc12`, the IC50 in the data set on PC-3 is greater than 3160 nM.
The same measure, in the same setting: the figure for `OCc1cccc(-c2nc(N3CCOCC3)c3[nH]ccc3n2)c1` is 2080 nM.
`OCc1cccc(-c2nc(N3CCOCC3)c3cc[nH]c3n2)c1` had an IC50 in the data set with PC-3 of 1210 nM. The concentration in solution in data set [1] (solubility) was 38 µg/mL (≈ 122 µM).
As for `CCn1ccc2c(N3CCOCC3)nc(-c3ccc(NC(=O)Nc4ccc(C(=O)N5CCNCC5)cc4)cc3)nc21`, the IC50 in data set [3] worked out at 0.9 nM; with PC-3 it was 27 nM; in data set [6], 0.8 nM; with MDA-MB-361 it was 4.5 nM. Further, in data set [1], the solubility turned out to be 1 µg/mL (≈ 1.8 µM). For the same compound, the half-life in the data set “in vitro [2]” and in the data set “in vitro [8]” was greater than 30 min throughout.
In the case of `CN(C)CCn1ccc2c(N3CCOCC3)nc(-c3ccc(NC(=O)Nc4ccc(F)cc4)cc3)nc21`, the results for the IC50 (in [3]; with PC-3) were 8 nM and 189 nM, respectively.
